Assay results as given in BindingDB's records for doi:10.1016/j.bmcl.2006.08.053 (Merck Research Laboratories, 2006).

Test: Release of camptothecin-induced cell cycle arrest in NCI-H1299 cells mediated by CHEK1 inhibition

Row | EC50 | Compound
1 | 97 nM | O=c1[nH]c2ccc(-c3cn[nH]c3)cc2cc1-c1cc2cc(CN3CCCCC3)ccc2[nH]1
2 | 170 nM | N#Cc1ccc2[nH]c(=O)c(-c3cc4cc(CN5CCCCC5)ccc4[nH]3)cc2c1 [2-oxo-3-(5-(piperidin-1-ylmethyl)-1H-indol-2-yl)-1,2-dihydroquinoline-6-carbonitrile]
3 | 520 nM | NC(=O)c1ccc2[nH]c(=O)c(-c3cc4cc(CN5CCCCC5)ccc4[nH]3)cc2c1 [2-oxo-3-(5-(piperidin-1-ylmethyl)-1H-indol-2-yl)-1,2-dihydroquinoline-6-carboxamide]
4 | 1140 nM | COCC(=O)N1CCN(Cc2ccc3[nH]c(-c4cc5cc(-c6cn[nH]c6)ccc5[nH]c4=O)cc3c2)CC1 [3-(5-((4-(2-methoxyacetyl)piperazin-1-yl)methyl)-1H-indol-2-yl)-6-(1H-pyrazol-4-yl)quinolin-2(1H)-one]
5 | 3700 nM | N#Cc1ccc2[nH]c(=O)c(-c3cc4cc(CN5CCC(CN)CC5)ccc4[nH]3)cc2c1 [3-(5-((4-(aminomethyl)piperidin-1-yl)methyl)-1H-indol-2-yl)-2-oxo-1,2-dihydroquinoline-6-carbonitrile]
6 | 3900 nM | NCC1CCN(Cc2ccc3[nH]c(-c4cc5cc(C(N)=O)ccc5[nH]c4=O)cc3c2)CC1 [3-(5-((4-(aminomethyl)piperidin-1-yl)methyl)-1H-indol-2-yl)-2-oxo-1,2-dihydroquinoline-6-carboxamide]
7 | 420 nM | CC(=O)N1CCN(Cc2ccc3[nH]c(-c4cc5cc(-c6cnn(C)c6)ccc5[nH]c4=O)cc3c2)CC1 [3-(5-((4-acetylpiperazin-1-yl)methyl)-1H-indol-2-yl)-6-(1-methyl-1H-pyrazol-4-yl)quinolin-2(1H)-one]
8 | 870 nM | CC(=O)N1CCN(Cc2ccc3[nH]c(-c4cc5cc(-c6cn[nH]c6)ccc5[nH]c4=O)cc3c2)CC1 [3-(5-((4-acetylpiperazin-1-yl)methyl)-1H-indol-2-yl)-6-(1H-pyrazol-4-yl)quinolin-2(1H)-one]
9 | 120 nM | O=c1[nH]c2ccc(-c3cn[nH]c3)cc2cc1-c1cc2cc(CN3CCC(F)CC3)ccc2[nH]1 [3-(5-((4-fluoropiperidin-1-yl)methyl)-1H-indol-2-yl)-6-(1H-pyrazol-4-yl)quinolin-2(1H)-one]
10 | 170 nM | O=c1[nH]c2ccc(-c3cn[nH]c3)cc2cc1-c1cc2cc(CN3CCOCC3)ccc2[nH]1 [3-(5-(morpholinomethyl)-1H-indol-2-yl)-6-(1H-pyrazol-4-yl)quinolin-2(1H)-one]
11 | 230 nM | O=c1[nH]c2ccc(-n3ccnn3)cc2cc1-c1cc2cc(CN3CCCCC3)ccc2[nH]1 [3-(5-(piperidin-1-ylmethyl)-1H-indol-2-yl)-6-(1H-1,2,3-triazol-1-yl)quinolin-2(1H)-one]
12 | 250 nM | O=c1[nH]c2ccc(-c3cc[nH]n3)cc2cc1-c1cc2cc(CN3CCCCC3)ccc2[nH]1 [3-(5-(piperidin-1-ylmethyl)-1H-indol-2-yl)-6-(1H-pyrazol-3-yl)quinolin-2(1H)-one]
13 | 880 nM | O=c1[nH]c2ccc(-n3nccn3)cc2cc1-c1cc2cc(CN3CCCCC3)ccc2[nH]1 [3-(5-(piperidin-1-ylmethyl)-1H-indol-2-yl)-6-(2H-1,2,3-triazol-2-yl)quinolin-2(1H)-one]
14 | 130 nM | Cn1cc(-c2ccc3[nH]c(=O)c(-c4cc5cc(CN6CCCCC6)ccc5[nH]4)cc3c2)cn1 [6-(1-methyl-1H-pyrazol-4-yl)-3-(5-(piperidin-1-ylmethyl)-1H-indol-2-yl)quinolin-2(1H)-one]
15 | 320 nM | O=c1[nH]c2ccc(-n3ccnc3)cc2cc1-c1cc2cc(CN3CCCCC3)ccc2[nH]1 [6-(1H-imidazol-1-yl)-3-(5-(piperidin-1-ylmethyl)-1H-indol-2-yl)quinolin-2(1H)-one]
16 | 1300 nM | Cn1nnc(-c2ccc3[nH]c(=O)c(-c4cc5cc(CN6CCCCC6)ccc5[nH]4)cc3c2)n1 [6-(2-methyl-2H-tetrazol-5-yl)-3-(5-(piperidin-1-ylmethyl)-1H-indol-2-yl)quinolin-2(1H)-one]
17 | 6300 nM | O=c1[nH]c2ccc(-c3cccc(O)c3)cc2cc1-c1cc2cc(CN3CCCCC3)ccc2[nH]1 [6-(3-hydroxyphenyl)-3-(5-(piperidin-1-ylmethyl)-1H-indol-2-yl)quinolin-2(1H)-one]
18 | > 10000 nM | COc1cc(-c2ccc3[nH]c(=O)c(-c4cc5cc(CN6CCCCC6)ccc5[nH]4)cc3c2)ccc1O [6-(4-hydroxy-3-methoxyphenyl)-3-(5-(piperidin-1-ylmethyl)-1H-indol-2-yl)quinolin-2(1H)-one]
19 | 190 nM | O=c1[nH]c2ccc(-c3cnsc3)cc2cc1-c1cc2cc(CN3CCCCC3)ccc2[nH]1 [6-(isothiazol-4-yl)-3-(5-(piperidin-1-ylmethyl)-1H-indol-2-yl)quinolin-2(1H)-one]
20 | 460 nM | O=c1[nH]c2ccc(Br)cc2cc1-c1cc2cc(CN3CCCCC3)ccc2[nH]1 [6-bromo-3-(5-(piperidin-1-ylmethyl)-1H-indol-2-yl)quinolin-2(1H)-one]
